# Source: patent US9012403B2, “Peptides as active agents to stabilize biological barriers” (XiberScience GmbH, priority 2010, dated 2015)
# Marks after values point to notes of the source that are not given here.
# Experiments:
# [1] = tested on: LPS induced lung injury; assay: LPS induced lung injury, bronchoalveolar lavage; assay type: in vivo; conditions: mice; for effect on barrier function in the LPS-inhalation model (neutrophils and albumin in BALF): equal in groups treated intraperitoneally and intratracheally; for counts of neutrophils in the BALF (mean +/ SD) / albumine content of BALFs (mean +/ SD): n = 20
# Protocol: Male C57Bl/6 Mice (Charles River, Germany) were kept at the animal facility of the Medical University of Vienna, feed with standard diet and water was provided ad libitum. All interventions were performed according to the guide lines of AAALAC (Association for Assessment and Accreditation of Laboratory Animal Care). All experiment were approved by the Ethic committee of the Medical University of Vienna. Mice were anesthetized with isoflouran and treated with 100 ng of LPS (E. coli O55:B5, Sigma Aldrich) intranasally. XIB1-a or XIB1-b was applied either intra-peritoneally (2×2 mg/kg) or via inhalation (2×4 mg/kg), first application was performed concomitantly with LPS administration, the second application was performed 1 h after the LPS inhalation.
# The trachea was exposed through a midline incision and canulated with a sterile 20-gauge catheter (BD Venflon™, Becton Dickinson Infusion Therapy, Helsingborg, Sweden). Bilateral broncho-alveolar lavage fluid (BALF) was gained by instilling two 0.5 ml aliquots of sterile saline. Approximately 0.9-1 ml BALF was retrieved per mouse. Total cell numbers were counted from each sample using a hemo-cytometer (Türck chamber), BALF differential cell counts were done on cytospin preparations stained with Giemsa. For protein measurements, BALF was diluted 1:2 in buffer containing 300 mM NaCl, 30 mM Tris, 2 mM MgCl2, 2 mM CaCl2, and Pepstatin A, Leupeptin and Aprotinin (all 20 ng/ml; pH 7.4). Protein levels in BALF were measured using the BCA protein kit according to the manufacturer's instructions (Pierce, Rockford, Ill.).
# In addition, the same set-up as described above was used for comparing the impact of XIB1-b compared to Bβ15-42 (PLoS ONE (2009), 4(4): e5391), a peptide derived from fibrin having the sequence […] (SEQ ID NO: 41). Bβ15-42 was added in the same manner as XIB1-b. Again, protein content and cell count of BALF was measured.
# [2] = tested on: Phosphorylated Myosin Light Chain (MLC) and actin stress fibers; assay: MLC phosphorylation and actin stress fiber formation in ECV304 cells (microscopy score); assay type: cell-based
# Protocol: To measure MLC phosphorylation and actin stress fiber formation, the following cell lines were used: Caco-2, ECV304 and HpMec. All cells were grown at standard conditions (37° C., 5% CO2 and 95% rH). Culture Medium used: for Caco-2: DMEM+1 mM sodium pyruvate+20% FCS+1% Penicillin Streptomycin; for ECV 304: RPMI 1640+10% FCS+1% Penicillin Streptomycin; and for HpMec: IMDM+25 mM Hepes+10% Human Serum+1% Penicillin Streptomycin+1% L-Glutamine+ECGS/Heparin 2 ml. 4 h before the experiment, cells were starved by serum withdrawal. To induce GEF-activity, cells were stimulated with thrombin, LPS or PMA for the indicated time in presence or absence of 50 μg/ml XIB1-a or XIB1-b. After stimulation, cells were fixed using 4% PFA. Phospho MLC was detected by using the “rabbit anti phosphor-myosin light chain antibody” from Chemicon in a concentration of 3 μl/ml in PBS (Gibco) supplemented with 0.1% Triton X-100. As detection antibody, the Alexa 448 tagged “anti Rabbit IgG Antibody” from Invitrogen was used in a concentration of 0.5 μl/ml in PBS (Gibco) supplemented with 0.1% Triton X-100. Aktin was detected using TRITC-labeled Phalloidin in a concentration of 0.5 μl/ml in PBS (Gibco) supplemented with 0.1% Triton. Stained cells were analyzed by using a Zeiss Laser Scan microscope. Evaluation of the cyto-skeletal activation was performed by 2 independent observers that were blinded to the conditions. Evaluation criteria were set as follows:
# Actin: parallel actin bundles absent=0; distinct bundle formation=1; prominent parallel bundles=2; Phospho-MLC: present at cell poles=0; slight co-localization with actin bundles=1; prominent co-localization with actin bundles=2
# [3] = tested on: GTP-bound RhoA; assay: GTP-associated active RhoA in ECV304 membrane fraction (western blot); assay type: cell-based
# Protocol: To measure the GTP-associated active RhoA, the following cell lines were used: Caco-2, ECV304 and HpMec. All cells were grown at standard conditions (37° C., 5% CO2 and 95% rH). 4 h before the experiment, cells were starved by serum withdrawal. To induce GEF-activity, cells were stimulated with thrombin, LPS or PMA for the indicated time in presence or absence of 50 μg/ml XIB1-a or XIB1-b. After stimulation, membrane fractions were prepared by using the commercial available “Compartemental Protein Extraction Kit” from Biochain Institutes. Membrane fractions were prepared according to the manufacturer instructions. The membrane fraction was separated on 15% polyacrylamide gel according to standard procedures of gel electrophoresis. The gels were afterwards blotted on a nitrocellulose membrane according to standard procedures of western blotting. GTP-bound RhoA was detected using RhoA-GTP monoclonal antibody from NewEast Inc. in a dilution of 1:5000. Protein bands were analyzed with the Dolphin-1D Gel analysis system (Wealtec).
# [4] = tested on: GEF; assay: GEF-activity in membrane fractions of HpMec cells (RhoGEF Exchange Assay); assay type: cell-based; conditions: HpMec
# Protocol: To measure the GEF-inhibitory effect, the following cell lines were used: Caco-2 (epithelial cells from adeno-carcinoma), ECV304 (epithelial cells from bladder carcinoma) and HpMec (endothelial cells, immortalized pulmonary micro-vascular cells). All cells were grown at standard conditions (37° C., 5% CO2 and 95% relative humidity (rH)). Culture Medium used for Caco-2: DMEM+1 mM sodium pyruvate+20% FCS+1% Penicillin Streptomycin; for ECV 304: RPMI 1640+10% FCS+1% Penicillin Streptomycin; and for HpMec: IMDM+25 mM Hepes+10% Human Serum+1% Penicillin Streptomycin+1% L-Glutamine+ECGS/Heparin 2 ml. 4 h before the experiment, cells were starved by serum withdrawal. To induce GEF-activity, cells were stimulated with thrombin, lipopolysaccharide (LPS) or PMA for the indicated time in presence or absence of 50 μg/ml XIB1-a or XIB1-b. After stimulation, membrane fractions were prepared by using the commercial available “Compartemental Protein Extraction Kit” from Biochain institutes. Membrane fractions were prepared according to the manufacturer instructions. GEF-activity in membrane lysates was determined by using “RhoGEF Exchange Assay Biochem Kit” from Cytoskeleton Inc. according to manufacturer instructions. GEF-activity was measured as fluorescence at using the Fluoroskan Ascent FL 2.6 from Thermo Electron Corporation. The excitation Filter wavelength was set at 355 nm and the emission filter wavelength at 460 nm.
# [5] = ECV 304, LPS 100 μg/ml, 1 min, with or without peptide 50 μg/ml
# [6] = ECV 304, LPS 100 μg/ml, 5 min, with or without peptide 50 μg/ml
# [7] = ECV 304, Thrombin 1 U/ml, 1 min, with or without peptide 50 μg/ml
# [8] = ECV 304, Thrombin 1 U/ml, 5 min, with or without peptide 50 μg/ml
# [9] = ECV 304, no stimulus, 1 min, peptide 50 μg/ml
# [10] = ECV 304, no stimulus, 5 min, peptide 50 μg/ml
# [11] = Thrombin 1 U/ml, 1 min, with or without peptide 50 μg/ml
# [12] = Thrombin 1 U/ml, 5 min, with or without peptide 50 μg/ml
# [13] = no stimulus, 1 min, peptide 50 μg/ml
# [14] = no stimulus, 5 min, peptide 50 μg/ml
# [15] = 6 h after LPS administration, intraperitoneal application (2×2 mg/kg)
# [16] = 6 h after LPS administration, intratracheal application
Sequence,effect on barrier function in the LPS-inhalation model (neutrophils and albumin in BALF) [1],"MLC phosphorylation and actin stress fiber formation, evaluation score (Mean) [2, 5]","MLC phosphorylation and actin stress fiber formation, evaluation score (Mean) [2, 6]","MLC phosphorylation and actin stress fiber formation, evaluation score (Mean) [2, 7]","MLC phosphorylation and actin stress fiber formation, evaluation score (Mean) [2, 8]","GTP-bound RhoA, relative values compared to unstimulated control (Mean) [3, 5]","GTP-bound RhoA, relative values compared to unstimulated control (Mean) [3, 6]","GTP-bound RhoA, relative values compared to unstimulated control (Mean) [3, 7]","GTP-bound RhoA, relative values compared to unstimulated control (Mean) [3, 8]","GTP-bound RhoA, relative values compared to unstimulated control (Mean) [3, 9]","GTP-bound RhoA, relative values compared to unstimulated control (Mean) [3, 10]","GEF-activity, relative values compared to unstimulated control (Mean) [4, 11]","GEF-activity, relative values compared to unstimulated control (Mean) [4, 12]","GEF-activity, relative values compared to unstimulated control (Mean) [4, 13]","GEF-activity, relative values compared to unstimulated control (Mean) [4, 14]",other results
GRRPGGASGG (/note=“Description of artificial sequence cingulin-derived peptide XIB1-a”),beneficial effect,1*,1*,1*,1*,1.6*,1.7*,2.1*,1.9*,1,1,1.8*,2.1*,1,1,"MLC phosphorylation and actin stress fiber formation, evaluation score (Mean) [2, 9]: 1; MLC phosphorylation and actin stress fiber formation, evaluation score (Mean) ([2]; ECV 304, no stimulus, 1 min, peptide 50 μg/ml, listed as XIB-a): 0"
GRRPLGGISGG (/note=“Description of artificial sequence cingulin-derived peptide XIB1-b”),beneficial effect,1*,1*,1*,1*,1.6*,1.7*,2.1*,1.9*,1,1,1.8*,2.1*,1,1,"counts of neutrophils in the BALF (mean +/ SD) ([1]; comparison with Bβ15-42 (Table 6), 6 h after LPS, intratracheal plus intraperitoneal application): 15 +/− 15 neutrophils/ml (× 10^3); albumine content of BALFs (mean +/ SD) [1, 15]: 120 ± 12 µg/mL; counts of neutrophils in the BALF (mean +/ SD) [1, 15]: 25 +/− 22 neutrophils/ml (× 10^3); albumine content of BALFs (mean +/ SD) [1, 16]: 98 ± 20 µg/mL; counts of neutrophils in the BALF (mean +/ SD) [1, 16]: 28 +/− 23 neutrophils/ml (× 10^3)"
